Where a name gives a salt, the structure may show the parent alone.
Biological target: Nav1.6 (Homo sapiens, UniProt Q9UQD0)
Assay: % block of Nav1.6 at 100 μM and IC50 (NaV1.6)
Type: cell-based
Details: for inhibition at 100 µM: 100 μM compound; for IC50: NaV1.6, Table 2, MV1060-MV1091, unit inferred, read-out: IC50
Method: Evaluation of Compounds for % Block of Nav1.6 at 100 μM
Compounds of the present invention were tested in an assay for % block of Nav1.6 at a concentration of 100 μM compound. Table 1 also indicates the melting point ranges for some compounds.
Some such compounds correspond to a compound of Formula III, wherein R9 is substituted with a halogen, a nitro or a CF3 group. In comparing MV1089, MV1090 and MV1091, it is shown that compounds of Formula III where R3 is H result in higher % block than when R3 is substituted. e.g., by OCH3. In comparing MV1066, MV1084, MV1085, MV1086, MV1087 and MV1088, it is shown that compounds of Formula III where R9 is halogen, a nitro or a CF3 group result in higher % block than when R9 is OCH3, COOH or CH3.

Chain of Nav1.6 (Q9UQD0 whole entry): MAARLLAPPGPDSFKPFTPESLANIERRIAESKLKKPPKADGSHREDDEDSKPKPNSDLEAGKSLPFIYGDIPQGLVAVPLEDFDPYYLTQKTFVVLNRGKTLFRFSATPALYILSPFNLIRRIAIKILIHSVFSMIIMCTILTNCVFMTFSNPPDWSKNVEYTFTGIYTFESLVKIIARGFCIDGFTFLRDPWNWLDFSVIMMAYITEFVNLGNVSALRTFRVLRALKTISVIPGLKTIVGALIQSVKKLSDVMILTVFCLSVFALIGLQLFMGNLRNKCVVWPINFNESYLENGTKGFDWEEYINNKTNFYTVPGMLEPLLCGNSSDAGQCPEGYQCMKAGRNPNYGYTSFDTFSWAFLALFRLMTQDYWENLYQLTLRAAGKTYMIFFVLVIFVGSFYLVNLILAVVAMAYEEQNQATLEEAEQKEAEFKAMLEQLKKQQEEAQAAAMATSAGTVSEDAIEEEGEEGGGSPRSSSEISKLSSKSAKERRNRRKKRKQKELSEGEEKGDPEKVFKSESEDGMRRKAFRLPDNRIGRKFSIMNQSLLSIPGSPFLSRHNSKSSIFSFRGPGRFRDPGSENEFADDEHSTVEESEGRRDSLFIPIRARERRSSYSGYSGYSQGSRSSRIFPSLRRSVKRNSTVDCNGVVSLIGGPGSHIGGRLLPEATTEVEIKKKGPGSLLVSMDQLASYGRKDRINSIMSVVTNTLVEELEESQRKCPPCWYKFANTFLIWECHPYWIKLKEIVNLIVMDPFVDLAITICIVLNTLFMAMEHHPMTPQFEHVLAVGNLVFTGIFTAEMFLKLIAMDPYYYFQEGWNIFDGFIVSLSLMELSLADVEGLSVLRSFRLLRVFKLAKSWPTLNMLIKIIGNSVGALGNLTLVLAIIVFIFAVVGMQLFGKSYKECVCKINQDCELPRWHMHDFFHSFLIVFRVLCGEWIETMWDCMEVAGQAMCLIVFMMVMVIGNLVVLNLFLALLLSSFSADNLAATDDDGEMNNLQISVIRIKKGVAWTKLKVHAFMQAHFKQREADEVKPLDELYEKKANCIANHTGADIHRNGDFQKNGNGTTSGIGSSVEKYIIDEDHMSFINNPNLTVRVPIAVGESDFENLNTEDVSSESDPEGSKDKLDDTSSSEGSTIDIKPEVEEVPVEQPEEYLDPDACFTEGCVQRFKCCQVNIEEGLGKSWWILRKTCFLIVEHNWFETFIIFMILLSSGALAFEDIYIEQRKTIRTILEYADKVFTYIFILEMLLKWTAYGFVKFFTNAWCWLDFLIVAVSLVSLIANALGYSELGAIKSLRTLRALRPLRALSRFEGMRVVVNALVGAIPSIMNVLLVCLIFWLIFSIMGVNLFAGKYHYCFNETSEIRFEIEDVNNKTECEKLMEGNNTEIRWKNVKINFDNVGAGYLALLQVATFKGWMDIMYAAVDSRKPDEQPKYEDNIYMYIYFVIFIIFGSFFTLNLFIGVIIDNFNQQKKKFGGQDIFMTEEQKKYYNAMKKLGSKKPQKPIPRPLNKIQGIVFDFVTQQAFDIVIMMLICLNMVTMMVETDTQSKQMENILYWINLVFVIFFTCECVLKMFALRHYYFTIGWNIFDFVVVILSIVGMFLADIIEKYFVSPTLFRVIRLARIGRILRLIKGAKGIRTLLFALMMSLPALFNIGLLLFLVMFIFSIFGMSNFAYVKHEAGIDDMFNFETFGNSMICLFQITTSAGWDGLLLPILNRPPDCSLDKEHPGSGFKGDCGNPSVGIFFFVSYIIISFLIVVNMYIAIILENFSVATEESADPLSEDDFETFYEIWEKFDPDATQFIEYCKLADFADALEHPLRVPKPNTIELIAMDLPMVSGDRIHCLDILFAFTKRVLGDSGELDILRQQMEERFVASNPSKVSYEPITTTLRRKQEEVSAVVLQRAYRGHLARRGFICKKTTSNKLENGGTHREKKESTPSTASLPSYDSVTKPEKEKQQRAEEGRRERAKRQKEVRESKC

Structure (SMILES)	inhibition at 100 µM [%]	IC50 [µM]
c1ccc(-c2nc3ccccc3[nH]2)cc1 [MV1060, 2-Phenyl-benzimidazole]	30	> 100
Clc1ccc(-c2nc3ccccc3[nH]2)cc1 [MV1061, 2-(4-chlorophenyl)-1H-1,3-benzodiazole]	45	
Clc1ccccc1-c1nc2ccccc2[nH]1 [MV1068, 2-(2-chlorophenyl)-1H-1,3-benzodiazole]	75	41.6
Clc1cccc(-c2nc3ccccc3[nH]2)c1 [MV1069, 2-(3-chlorophenyl)-1H-1,3-benzodiazole]	65	37
O=[N+]([O-])c1ccccc1-c1nc2ccccc2[nH]1 [MV1070, 2-(2-nitrophenyl)-1H-1,3-benzodiazole]	20	> 100
O=[N+]([O-])c1cccc(-c2nc3ccccc3[nH]2)c1 [MV1071, 2-(3-nitrophenyl)-1H-1,3-benzodiazole]	30	> 100
O=[N+]([O-])c1ccc(-c2nc3ccccc3[nH]2)cc1 [MV1072, 2-(4-nitrophenyl)-1H-1,3-benzodiazole]	20	> 100
COc1ccccc1-c1nc2ccccc2[nH]1 [MV1073, 2-(2-methoxyphenyl)-1H-1,3-benzodiazole]	40	> 100
COc1cccc(-c2nc3ccccc3[nH]2)c1 [MV1074, 2-(3-methoxyphenyl)-1H-1,3-benzodiazole]	40	> 100
FC(F)(F)c1ccccc1-c1nc2ccccc2[nH]1 [MV1075, 2-(2-trifluoromethyl-phenyl)-1H-1,3-benzodiazole]	20	> 100
FC(F)(F)c1cccc(-c2nc3ccccc3[nH]2)c1 [MV1076, 2-(3-trifluoromethyl-phenyl)-1H-1,3-benzodiazole]	60	
FC(F)(F)c1ccc(-c2nc3ccccc3[nH]2)cc1 [MV1077, 2-(4-trifluoromethyl-phenyl)-1H-1,3-benzodiazole]	15	> 100
O=C(O)c1ccccc1-c1nc2ccccc2[nH]1 [MV1078, 2-(1H-1,3-benzodiazol-2-yl)benzoic acid]	5	> 100
O=C(O)c1cccc(-c2nc3ccccc3[nH]2)c1 [MV1079, 3-(1H-1,3-benzodiazol-2-yl)benzoic acid]	15	> 100
O=C(O)c1ccc(-c2nc3ccccc3[nH]2)cc1 [MV1080, 4-(1H-1,3-benzodiazol-2-yl)benzoic acid]	10	> 100
Cc1ccccc1-c1nc2ccccc2[nH]1 [MV1081, 2-(2-methylphenyl)-1H-1,3-benzodiazole]	25	> 100
Cc1cccc(-c2nc3ccccc3[nH]2)c1 [MV1082, 2-(3-methylphenyl)-1H-1,3-benzodiazole]	65	
Cc1ccc(-c2nc3ccccc3[nH]2)cc1 [MV1083, 2-(4-methylphenyl)-1H-1,3-benzodiazole]	30	> 100
O=[N+]([O-])c1ccc2nc(-c3ccccc3)[nH]c2c1 [MV1084, 6-nitro-2-phenyl-1H-1,3-benzodiazole]	70	
COc1ccc2nc(-c3ccccc3)[nH]c2c1 [MV1085, 6-methoxy-2-phenyl-1H-1,3-benzodiazole]	35	> 100
FC(F)(F)c1ccc2nc(-c3ccccc3)[nH]c2c1 [MV1086, 6-trifluoromethyl-2-phenyl-1H-1,3-benzodiazole]	90	24.7
O=C(O)c1ccc2nc(-c3ccccc3)[nH]c2c1 [MV1087, 2-phenyl-1H-1,3-benzodiazole-6-carboxylic acid]	0	> 100
Cc1ccc2nc(-c3ccccc3)[nH]c2c1 [MV1088, 6-methyl-2-phenyl-1H-1,3-benzodiazole]	55	
COc1ccccc1-c1nc2cc(Cl)ccc2[nH]1 [MV1089, 6-chloro-2-(2-methoxyphenyl]-1H-1,3-benzodiazole]	90	40.1
COc1cccc(-c2nc3cc(Cl)ccc3[nH]2)c1 [MV1090, 6-chloro-2-(3-methoxyphenyl)-1H-1,3-benzodiazole]	85	29.6
COc1ccc(-c2nc3cc(Cl)ccc3[nH]2)cc1 [MV1091, 6-chloro-2-(4-methoxyphenyl)-1H-1,3-benzodiazole]	0	> 100

Structure (SMILES)	inhibition at 100 µM [%]	IC50 [µM]
O=C(Nc1ccc(-c2c[nH]c(-c3ccccc3)n2)cc1)c1ccccc1 [MV1301, N-(4-[2-PHENYL-1H-IMIDAZOL-4-YL)-PHENYL]-BENZAMIDE HYDROCHLORIDE]	0	
COc1ccc(-c2nc(-c3ccc(NC(=O)c4ccccc4)cc3)c[nH]2)cc1 [MV1302, N-(4-[2-(4-METHOXY-PHENYL-1H-IMIDAZOL-4-YL]-PHENYL)-BENZAMIDE HYDROCHLORIDE]	20	
COc1ccc(C(=O)Nc2ccc(-c3c[nH]c(-c4ccccc4)n3)cc2)cc1 [MV1303, 4-METHOXY-N-[4-[2-PHENYL-1H-IMIDAZOL-4-YL]-PHENYL]-BENZAMIDE HYDROCHLORIDE]	0	
COc1ccc(C(=O)Nc2ccc(-c3c[nH]c(-c4ccc(OC)cc4)n3)cc2)cc1 [MV1304, 4-METHOXY-N-(4-[2-(4-METHOXY-PHENYL)-1H-IMIDAZOL-4-YL]-PHENYL)-BENZAMIDE HYDROCHLORIDE]	40	
O=C(Nc1ccc(-c2c[nH]c(-c3ccccc3)n2)cc1)c1ccc(Cl)cc1 [MV1305, 4-CHLORO-N-[4-(2-PHENYL-1H-IMIDAZOL-4-YL)-PHENYL]-BENZAMIDE HYDROCHLORIDE]	50	
COc1ccc(-c2nc(-c3ccc(NC(=O)c4ccc(Cl)cc4)cc3)c[nH]2)cc1 [MV1306, 4-CHLORO-N-(4-[2-(4-METHOXY-PHENYL)-1H-IMIDAZOL-4-YL]-PHENYL)-BENZAMIDE HYDROCHLORIDE]	10	
O=C(Nc1cccc(-c2c[nH]c(-c3ccccc3)n2)c1)c1ccccc1 [MV1307, N-[3-(2-PHENYL-1H-IMIDAZOL-4-YL)-PHENYL]-BENZAMIDE HYDROCHLORIDE]	25	
COc1ccc(-c2nc(-c3cccc(NC(=O)c4ccccc4)c3)c[nH]2)cc1 [MV1308, N-(3-[2-(4-METHOXY-PHENYL)-1H-IMIDAZOL-4-YL]-PHENYL)-BENZAMIDE HYDROCHLORIDE]	75	
COc1ccc(C(=O)Nc2cccc(-c3c[nH]c(-c4ccccc4)n3)c2)cc1 [MV1309, 4-METHOXY-N-[3-[2-PHENYL-1H-IMIDAZOL-4-YL]-PHENYL]-BENZAMIDE HYDROCHLORIDE]	75	
COc1ccc(C(=O)Nc2cccc(-c3c[nH]c(-c4ccc(OC)cc4)n3)c2)cc1 [MV1310, 4-METHOXY-N-(3-[2-(4-METHOXY-PHENYL)-1H-IMIDAZOL-A-YL]-PHENYL)-BENZAMIDE HYDROCHLORIDE]	60	
O=C(Nc1cccc(-c2c[nH]c(-c3ccccc3)n2)c1)c1ccc(Cl)cc1 [MV1311, 4-CHLORO-N-[3-(2-PHENYL-1H-IMIDAZOL-4-YL)-PHENYL]-BENZAMIDE HYDROCHLORIDE]	90	
COc1ccc(-c2nc(-c3cccc(NC(=O)c4ccc(Cl)cc4)c3)c[nH]2)cc1 [MV1312, 4-CHLORO-N-(3-[2-(4-METHOXY-PHENYL)-1H-IMIDAZOL-4-YL]-PHENYL)-BENZAMIDE HYDROCHLORIDE]	85	
COc1ccc(-c2ncc[nH]2)cc1 [MV1350, 2-(4-METHOXY-PHENYL)-1H-IMIDAZOLE OXALATE]	25	
COc1cccc(-c2ncc[nH]2)c1 [MV1351, 2-(3-METHOXY-PHENYL)-1H-IMIDAZOLE OXALATE]	25	
COc1ccccc1-c1ncc[nH]1 [MV1352, 2-(2-METHOXY-PHENYL)-1H-IMIDAZOLE OXALATE]	30	
Clc1ccc(-c2ncc[nH]2)cc1 [MV1353, 2-(4-CHLORO-PHENYL)-1H-IMIDAZOLE OXALATE]	30	
Clc1cccc(-c2ncc[nH]2)c1 [MV1354, 2-(3-CHLORO-PHENYL)-1H-IMIDAZOLE OXALATE]	20	
Clc1ccccc1-c1ncc[nH]1 [MV1355, 2-(2-CHLORO-PHENYL)-1H-IMIDAZOLE OXALATE]	0	
COc1ccc(-c2ncc(C)[nH]2)cc1 [MV1356, 2-(4-METHOXY-PHENYL)-5-METHYL-1H-IMIDAZOLE OXALATE]	65	
COc1cccc(-c2ncc(C)[nH]2)c1 [MV1357, 2-(3-METHOXY PHENYL)-5-METHYL-1H-IMIDAZOLE OXALATE]	90	
COc1ccccc1-c1ncc(C)[nH]1 [MV1358, 2-(2-METHOXY-PHENYL)-5-METHYL-1H-IMIDAZOLE OXALATE]	50	
Cc1cnc(-c2ccc(Cl)cc2)[nH]1 [MV1359, 2-(4-CHLORO-PHENYL)-5-METHYL-1H-IMIDAZOLE OXALATE]	75	
Cc1cnc(-c2cccc(Cl)c2)[nH]1 [MV1360, 2-(3-CHLORO-PHENYL)-5-METHYL-1H-IMIDAZOLE OXALATE]	70	
Cc1cnc(-c2ccccc2Cl)[nH]1 [MV1361, 2-(2-CHLORO-PHENYL)-5-METHYL-1H-IMIDAZOLE OXALATE]	0	
COc1ccc(-c2nc(C)c(C)[nH]2)cc1 [MV1362, 2-(4-METHOXY-PHENYL)-4,5-DIMETHYL-1H-IMIDAZOLE OXALATE]	85	
COc1cccc(-c2nc(C)c(C)[nH]2)c1 [MV1363, 2-(3-METHOXY-PHENYL)-4,5-DIMETHYL-1H-IMIDAZOLE OXALATE]	80	

From patent US12403128B2, “Compositions and methods for blocking sodium channels” (University of Virginia Patent Foundation, priority 2017, dated 2025)
